The source of these data is ChEMBL document CHEMBL3877319, “Synthesis of Ofornine mimics from natural product l-vasicine as anti-hypertensive agents” (Bioorg Med Chem, 2017).

Common to all, as to assay type: functional
The subject of assay [1] is Rattus norvegicus. As to the kind of experiment: Anti-hypertensive activity in Wistar rat assessed as systolic blood pressure at 10 mg/kg, iv after 5 mins (reference value: 110 to 124.6 mmHg).
For assay [2], the system named is Rattus norvegicus. As to the kind of experiment: Anti-hypertensive activity in Wistar rat assessed as diastolic blood pressure at 10 mg/kg, iv after 5 mins (reference value: 77.15 to 94.4 mmHg).
For assay [3], the system named is Rattus norvegicus. Kind of assay: Anti-hypertensive activity in Wistar rat assessed as systolic blood pressure at 10 mg/kg, iv after 15 mins (reference value: 110 to 124.6 mmHg).
The test system of assay [4] is Rattus norvegicus. As to the kind of experiment: Anti-hypertensive activity in Wistar rat assessed as diastolic blood pressure at 10 mg/kg, iv after 15 mins (reference value: 77.15 to 94.4 mmHg).
For assay [5], the system named is Rattus norvegicus. Kind of assay: Anti-hypertensive activity in Wistar rat assessed as systolic blood pressure at 10 mg/kg, iv after 30 mins (reference value: 110 to 124.6 mmHg).
For assay [6], the system named is Rattus norvegicus. As to the kind of experiment: Anti-hypertensive activity in Wistar rat assessed as diastolic blood pressure at 10 mg/kg, iv after 30 mins (reference value: 77.15 to 94.4 mmHg).
Assay [7] deals with Rattus norvegicus. Kind of assay: Anti-hypertensive activity in Wistar rat assessed as systolic blood pressure at 10 mg/kg, iv after 60 mins (reference value: 110 to 124.6 mmHg).
Assay [8] concerns Rattus norvegicus. Kind of assay: Anti-hypertensive activity in Wistar rat assessed as diastolic blood pressure at 10 mg/kg, iv after 60 mins (reference value: 77.15 to 94.4 mmHg).
Assay [9] concerns Rattus norvegicus. As to the kind of experiment: Anti-hypertensive activity in Wistar rat assessed as systolic blood pressure at 10 mg/kg, iv after 120 mins (reference value: 110 to 124.6 mmHg).
The subject of assay [10] is Rattus norvegicus. As to the kind of experiment: Anti-hypertensive activity in Wistar rat assessed as diastolic blood pressure at 10 mg/kg, iv after 120 mins (reference value: 77.15 to 94.4 mmHg).
Assay [11] deals with Rattus norvegicus. As to the kind of experiment: Anti-hypertensive activity in Wistar rat assessed as systolic blood pressure at 10 mg/kg, iv after 150 mins (reference value: 110 to 124.6 mmHg).
Assay [12] has as its system Rattus norvegicus. As to the kind of experiment: Anti-hypertensive activity in Wistar rat assessed as diastolic blood pressure at 10 mg/kg, iv after 150 mins (reference value: 77.15 to 94.4 mmHg).
Assay [13] has as its system Rattus norvegicus. As to the kind of experiment: Anti-hypertensive activity in Wistar rat assessed as systolic blood pressure at 10 mg/kg, iv after 180 mins (reference value: 110 to 124.6 mmHg).
Assay [14] relates to Rattus norvegicus. Kind of assay: Anti-hypertensive activity in Wistar rat assessed as diastolic blood pressure at 10 mg/kg, iv after 180 mins (reference value: 77.15 to 94.4 mmHg).

`CCCc1cn([C@@H]2CCN(C(=O)c3ccccc3Nc3ccncc3)C2)nn1`: the Activity in the assay on Rattus norvegicus [1] is recorded as 82.7 mmHg; with Rattus norvegicus [2], 44.5 mmHg; with Rattus norvegicus [3], 86.8 mmHg; with Rattus norvegicus [4], 53.4 mmHg; in the assay on Rattus norvegicus [5] it was 118.8 mmHg; with Rattus norvegicus [6] it was 78.5 mmHg. Besides, the Activity with Rattus norvegicus [7] turned out to be 114.8 mmHg; in the assay with Rattus norvegicus [8] it was 83.7 mmHg; in the assay on Rattus norvegicus [9], 118.1 mmHg; with Rattus norvegicus [10], 82.7 mmHg; with Rattus norvegicus [11], 119.9 mmHg; in the assay with Rattus norvegicus [12], 81.5 mmHg. For the same molecule, the Activity in the assay with Rattus norvegicus [13] is recorded as 118.8 mmHg; in the assay with Rattus norvegicus [14] it was 84.5 mmHg.
`O=C(c1ccccc1-n1cc(C2CC2)nn1)N1CC[C@@H](O)C1`: the Activity was found to be 113.8 mmHg in the assay with Rattus norvegicus [1]; 79.6 mmHg in the assay with Rattus norvegicus [2]; 114.91 mmHg with Rattus norvegicus [3]; 90.7 mmHg in the assay with Rattus norvegicus [4]; 118.1 mmHg in the assay with Rattus norvegicus [5]; 84.35 mmHg with Rattus norvegicus [6]. Moreover, the Activity in the assay with Rattus norvegicus [7] was 120 mmHg; with Rattus norvegicus [8], 82.75 mmHg; in the assay on Rattus norvegicus [9] it was 120.4 mmHg; with Rattus norvegicus [10], 83.3 mmHg; in the assay on Rattus norvegicus [11], 121.7 mmHg; in the assay on Rattus norvegicus [12] it was 84.3 mmHg. Further, the figures for the Activity with Rattus norvegicus [13] and in the assay with Rattus norvegicus [14] were 123.7 mmHg and 86.6 mmHg, respectively.
Regarding `C[Si](C)(C)O[C@@H]1CCNC1`, the Activity with Rattus norvegicus [1] was 119.9 mmHg; with Rattus norvegicus [2] it was 84.74 mmHg; in the assay on Rattus norvegicus [3] it was 119.7 mmHg; in the assay with Rattus norvegicus [4] it was 85.42 mmHg; with Rattus norvegicus [5] it was 119.9 mmHg; with Rattus norvegicus [6], 87.98 mmHg. Further, the Activity with Rattus norvegicus [7] worked out at 117.6 mmHg; in the assay with Rattus norvegicus [8], 83.9 mmHg; with Rattus norvegicus [9], 118.5 mmHg; in the assay with Rattus norvegicus [10], 89.49 mmHg; in the assay on Rattus norvegicus [11] it was 122.4 mmHg; with Rattus norvegicus [12], 88.4 mmHg. Besides, the values for the Activity in the assay on Rattus norvegicus [13] and with Rattus norvegicus [14] were 121.6 mmHg and 84.75 mmHg, respectively.
As to `CCCCCc1ccc(-c2cn([C@@H]3CCN(C(=O)c4ccccc4Nc4ccncc4)C3)nn2)cc1`, the Activity in the assay with Rattus norvegicus [1] is on record as 86.15 mmHg; in the assay with Rattus norvegicus [2], 59.8 mmHg; in the assay on Rattus norvegicus [3], 97 mmHg; in the assay with Rattus norvegicus [4], 67.75 mmHg; in the assay on Rattus norvegicus [5], 108.4 mmHg; with Rattus norvegicus [6], 79.7 mmHg. Moreover, the Activity with Rattus norvegicus [7] is on record as 111.6 mmHg; in the assay with Rattus norvegicus [8] it was 81.4 mmHg; in the assay with Rattus norvegicus [9], 115.6 mmHg; in the assay with Rattus norvegicus [10], 80.3 mmHg; with Rattus norvegicus [12], 77.3 mmHg; with Rattus norvegicus [13], 115.3 mmHg.
Take `[N-]=[N+]=N[C@@H]1CCN(C(=O)c2ccccc2Nc2ccncc2)C1`: the Activity in the assay with Rattus norvegicus [1] is on record as 86.15 mmHg; in the assay with Rattus norvegicus [2] it was 59.8 mmHg; in the assay on Rattus norvegicus [3] it was 97 mmHg; in the assay on Rattus norvegicus [4], 67.75 mmHg; in the assay on Rattus norvegicus [5] it was 108.4 mmHg; in the assay on Rattus norvegicus [6] it was 79.7 mmHg. Further, the Activity came out at 111.6 mmHg with Rattus norvegicus [7]; 81.4 mmHg in the assay on Rattus norvegicus [8]; 115.6 mmHg with Rattus norvegicus [9]; 80.3 mmHg with Rattus norvegicus [10]; 77.3 mmHg in the assay on Rattus norvegicus [12]; 115.3 mmHg in the assay with Rattus norvegicus [13].
